The values that follow come from patent US8101605B2, “SHIP1 modulators and methods related thereto” (Aquinox Pharmaceuticals Inc., priority 2009, dated 2012).

One assay has as its target T1, His-hSHIP1 enzyme (Homo sapiens, UniProt Q92835).
T1 sequence (Q92835 1-1189): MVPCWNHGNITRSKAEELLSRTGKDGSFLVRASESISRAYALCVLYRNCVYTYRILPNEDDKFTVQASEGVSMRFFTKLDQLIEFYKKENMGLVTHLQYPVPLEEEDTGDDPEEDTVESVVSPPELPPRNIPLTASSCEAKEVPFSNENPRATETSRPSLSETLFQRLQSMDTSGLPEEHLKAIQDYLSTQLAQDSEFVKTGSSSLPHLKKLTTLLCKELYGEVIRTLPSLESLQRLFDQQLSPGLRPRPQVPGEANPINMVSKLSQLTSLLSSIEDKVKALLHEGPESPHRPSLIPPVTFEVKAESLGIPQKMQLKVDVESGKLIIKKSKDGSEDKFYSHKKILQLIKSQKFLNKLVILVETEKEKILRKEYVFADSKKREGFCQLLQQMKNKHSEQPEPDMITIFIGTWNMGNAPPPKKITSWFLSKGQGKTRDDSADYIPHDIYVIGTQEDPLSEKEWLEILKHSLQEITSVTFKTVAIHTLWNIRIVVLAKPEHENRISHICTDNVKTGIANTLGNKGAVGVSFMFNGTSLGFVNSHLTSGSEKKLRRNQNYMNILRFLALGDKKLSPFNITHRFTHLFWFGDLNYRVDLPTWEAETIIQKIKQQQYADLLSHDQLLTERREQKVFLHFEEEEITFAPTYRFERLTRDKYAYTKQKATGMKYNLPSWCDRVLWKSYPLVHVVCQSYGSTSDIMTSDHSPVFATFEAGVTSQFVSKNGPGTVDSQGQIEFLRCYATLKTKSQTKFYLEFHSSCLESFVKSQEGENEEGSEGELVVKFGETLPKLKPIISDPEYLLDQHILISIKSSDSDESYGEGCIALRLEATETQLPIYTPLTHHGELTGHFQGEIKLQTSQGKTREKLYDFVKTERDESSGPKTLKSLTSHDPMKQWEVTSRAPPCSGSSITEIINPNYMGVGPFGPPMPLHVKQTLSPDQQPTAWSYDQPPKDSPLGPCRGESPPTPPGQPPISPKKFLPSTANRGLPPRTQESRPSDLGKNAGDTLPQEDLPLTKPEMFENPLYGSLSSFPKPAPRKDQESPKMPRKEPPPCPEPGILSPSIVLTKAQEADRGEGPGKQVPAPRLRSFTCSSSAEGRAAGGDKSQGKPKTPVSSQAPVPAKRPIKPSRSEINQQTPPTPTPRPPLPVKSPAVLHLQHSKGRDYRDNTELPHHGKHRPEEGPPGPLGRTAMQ
Kind of assay: His-hSHIP1 phosphatase activity assay (IP4 substrate, Biomol Green). Type of assay: biochemical. The note with it: percentage increase relative to background; concentrations ≦300 μM. The essentials: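 His-hSHIP1 (15–20 ng) was incubated with IP4 (50 μM final) and compound (0–300 μM final, from 10% ethanol solutions) in 20 mM Tris-HCl, 10 mM MgCl2 pH 7.5, 0.02% Tween 20 for 15 min at 37 °C. Released phosphate was read with Biomol Green at 650 nm. Activation is % increase over background, scored + (<50%), ++ (≥50% but <65%), +++ (≥65%).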

Assay [1] concerns allergen-induced passive cutaneous anaphylaxis. The assay is described as follows: Passive cutaneous anaphylaxis in mice. Type of assay: in vivo. The note with it: oral gavage, doses less than 20 mg/kg. On the procedure:
The activity of representative compounds on passive cutaneous anaphylaxis in mice was evaluated according to the procedures disclosed by Ovary, J Immunol 81, 355-357, 1958 and Halpern et al., Br J Pharmacol Chemother 20, 389-398, 1963, both of which are incorporated herein by reference in their entirety. To induce a passive cutaneous anaphylaxis, mice underwent intradermal ear inoculation on their right ear with 25 ng in 20 μL of anti-DNP-IgE. The left ears were untreated and served as negative controls. Twenty-four hours after inoculation, all mice were administered test compound by oral gavage (PO). Sixty minutes after oral administration, mice were given a tail vein injection of 2% Evan's blue (0.2 μm filtered, in 200 μL saline) followed by a second tail IV injection of 100 μg DNP-HSA (in 200 μL). Sixty minutes following the DNP-HSA injection, mice were euthanized using CO2 inhalation. Subsequently, ear biopsies were performed by taking four millimetre punches from both ears, which then underwent Evan's Blue extraction using formamide incubation in 96 well plates. Eighty μL of eluents were transferred to flat-bottom 96-well plates and absorbance read using SpectraMax M5 spectrophotometer (Molecular Devices, Sunnyvale, Calif., USA) at 620 nm. Background readings from all samples were taken at 740 nm and subtracted from the 620 nm readings. Data were reported as OD. […] Scoring in Table 4 is expressed as follows: + (1-30% inhibition); ++ (31-50% inhibition); +++ (>50% inhibition).

The subject of assay [2] is Akt phosphorylation in Molt-4 (PTEN−/SHIP1+) cells. The assay is described as follows: Akt phosphorylation in IGF-1 stimulated Molt-4 lymphocytes (western blot). The arrangement: key: +: inhibits Akt phosphorylation at 10 μM; −: no effect on Akt phosphorylation at 10 μM. The note with it: 10 μM; IGF-1 stimulation. Type of assay: cell-based. On the procedure: (§1) Jurkat (PTEN−/SHIP1−) or Molt-4 (PTEN−/SHIP1+) cells were starved in serum free RPMI for overnight. In a 15 mL conical tube, 2-3 million serum starved cells (1 million cells per mL) were treated with various concentrations of test compound (0.1, 1, or 10 μM final in 0.1% DMSO) for 30 min at 37° C. followed by stimulation with 100 ng/mL of IGF-1 for 1 hour at 37° C. After stimulation, cells were washed once with ice-cold DPBS and lysed with Lysis Buffer (20 mM Tris-HCl, pH 7.5, 140 mM NaCl, 1% NP-40, Complete Mini Protease Inhibitor Cocktail, 10 mM NaF, 1 mM Na3VO4, 1 mM β-glycerolphosphate) on ice for 30 min with vortexing every 10 min. Samples were then centrifuged at 13,000 rpm for 20 min, and supernatants were collected as total cell lysate samples. Protein concentration was determined using bicinchonic acid assay, and about 15 μg of total protein from each sample was loaded and separated on a 4-12% Tris-Glycine gel. After SDS-PAGE, proteins were transferred from the gel to a nitrocellulose membrane. The membrane was blocked in 5% BSA in PBS containing 0.1% Tween-20 (PBS-T) for 1 hour at room temperature before probing with primary antibodies for overnight at 4° C. The following antibodies were used: mouse anti-SHIP1 (1:500 dilution; Santa Cruz, Calif., USA), rabbit anti-phospho-Akt(Ser473) (1:1000 dilution; Cell Signaling Technologies, MA, USA), rabbit anti-Akt (1:1000; Cell Signaling Technologies, MA, USA), and rabbit anti-actin (1:2000; Cell Signaling Technologies, MA, USA). The membrane was then incubated with goat anti-rabbit or anti-mouse secondary antibodies (1:3000) for 1 hour at room temperature. Target proteins on the membrane were detected with ECL solution and exposed on a film.
(§2) Scoring in Table 3 is expressed as follows: + (inhibits Akt phosphorylation at 10 μM); − (no effect on Akt phosphorylation at 10 μM).

In assay [3] the test system is Akt phosphorylation in Jurkat (PTEN−/SHIP1−) cells. The assay is described as follows: Akt phosphorylation in IGF-1 stimulated Jurkat lymphocytes (western blot). The assay is classed as cell-based. The arrangement: key: +: inhibits Akt phosphorylation at 10 μM; −: no effect on Akt phosphorylation at 10 μM. As to conditions: 10 μM; IGF-1 stimulation. On the procedure:
as §1, §2
For orientation: In western blotting, separated proteins are transferred to a membrane and probed.

As to `CC1(C)CCC[C@]2(C)[C@H]3COc4c(O)cc(O)cc4[C@]3(C)CC[C@@H]12` [Compound No. 43, (1R,10R,11S,16S)-1,11,15,15-tetramethyl-8-oxatetracyclo[8.8.0.0^2,7.0^11,16]octadeca-2,4,6-triene-4,6-diol], at His-hSHIP1 enzyme, the “Scoring: percent (%) activation of His-hSHIP1 enzyme” value is “+ (<50%)”. In addition, the “Scoring: inhibition of passive cutaneous anaphylaxis” value in assay [1] is listed as “+ (1-30% inhibition)”.
Turning to `CC1(C)CCC[C@]2(C)[C@H]3COc4cc(O)cc(O)c4[C@]3(C)CC[C@@H]12` [Compound No. 50, (1R,10R,11S,16S)-1,11,15,15-tetramethyl-8-oxatetracyclo[8.8.0.0^2,7.0^11,16]octadeca-2,4,6-triene-3,5-diol], the “Scoring: percent (%) activation of His-hSHIP1 enzyme” value on His-hSHIP1 enzyme is listed as “+ (<50%)”. For the same compound, the “Akt phosphorylation, Molt-4 (SHIP1+)” value in assay [2] was “+”. The “Akt phosphorylation, Jurkat (SHIP1−)” value in assay [3] was “−”.
